{"source": "patent US20040220148A1", "about": "“5-Membered ring heterocycles as inhibitors of leucocyte adhesion and as VLA-4 antagonists” (Aventis Pharma Deutschland GmbH, priority 1996, published 2004)", "target": "T1, VLA-4 integrins on human U937 cells (interaction between VCAM-1 and VLA-4) (Homo sapiens, UniProt P05556+P13612)", "T1 construct": "the VLA-4 integrins, are offered in their natural form as surface molecules on human U937 cells; host or cells: U937 cells (VLA-4, endogenous); the partner hVCAM-1(1-3)-IgG came from the supernatant of transfected COS cells (ATCC CRL1651)", "T1 sequence (P13612 34-1032)": "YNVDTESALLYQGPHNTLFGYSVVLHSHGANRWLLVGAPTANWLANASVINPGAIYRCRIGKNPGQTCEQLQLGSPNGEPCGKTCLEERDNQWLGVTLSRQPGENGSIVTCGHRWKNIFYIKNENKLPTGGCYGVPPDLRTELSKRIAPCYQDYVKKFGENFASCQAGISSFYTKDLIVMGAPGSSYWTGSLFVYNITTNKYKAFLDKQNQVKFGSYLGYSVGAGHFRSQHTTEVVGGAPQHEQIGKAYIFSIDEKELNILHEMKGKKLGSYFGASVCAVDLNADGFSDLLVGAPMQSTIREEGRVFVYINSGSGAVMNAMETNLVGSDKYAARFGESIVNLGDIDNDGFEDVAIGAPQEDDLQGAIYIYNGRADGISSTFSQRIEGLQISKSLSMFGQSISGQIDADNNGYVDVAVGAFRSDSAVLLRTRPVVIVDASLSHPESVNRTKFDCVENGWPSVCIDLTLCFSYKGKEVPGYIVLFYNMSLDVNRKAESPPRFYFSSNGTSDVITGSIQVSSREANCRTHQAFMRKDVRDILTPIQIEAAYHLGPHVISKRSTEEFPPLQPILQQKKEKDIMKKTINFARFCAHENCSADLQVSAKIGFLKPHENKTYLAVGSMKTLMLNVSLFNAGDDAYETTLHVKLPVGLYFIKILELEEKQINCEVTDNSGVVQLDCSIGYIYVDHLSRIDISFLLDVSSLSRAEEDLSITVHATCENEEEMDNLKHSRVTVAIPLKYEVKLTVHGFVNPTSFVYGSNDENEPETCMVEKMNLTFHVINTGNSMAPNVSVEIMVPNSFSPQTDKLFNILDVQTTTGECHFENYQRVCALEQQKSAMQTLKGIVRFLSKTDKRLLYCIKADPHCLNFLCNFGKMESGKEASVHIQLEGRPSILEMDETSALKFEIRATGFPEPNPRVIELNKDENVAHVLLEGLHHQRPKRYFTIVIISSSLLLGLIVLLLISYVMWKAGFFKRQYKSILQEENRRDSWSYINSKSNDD", "T1 sequence (P05556 21-798)": "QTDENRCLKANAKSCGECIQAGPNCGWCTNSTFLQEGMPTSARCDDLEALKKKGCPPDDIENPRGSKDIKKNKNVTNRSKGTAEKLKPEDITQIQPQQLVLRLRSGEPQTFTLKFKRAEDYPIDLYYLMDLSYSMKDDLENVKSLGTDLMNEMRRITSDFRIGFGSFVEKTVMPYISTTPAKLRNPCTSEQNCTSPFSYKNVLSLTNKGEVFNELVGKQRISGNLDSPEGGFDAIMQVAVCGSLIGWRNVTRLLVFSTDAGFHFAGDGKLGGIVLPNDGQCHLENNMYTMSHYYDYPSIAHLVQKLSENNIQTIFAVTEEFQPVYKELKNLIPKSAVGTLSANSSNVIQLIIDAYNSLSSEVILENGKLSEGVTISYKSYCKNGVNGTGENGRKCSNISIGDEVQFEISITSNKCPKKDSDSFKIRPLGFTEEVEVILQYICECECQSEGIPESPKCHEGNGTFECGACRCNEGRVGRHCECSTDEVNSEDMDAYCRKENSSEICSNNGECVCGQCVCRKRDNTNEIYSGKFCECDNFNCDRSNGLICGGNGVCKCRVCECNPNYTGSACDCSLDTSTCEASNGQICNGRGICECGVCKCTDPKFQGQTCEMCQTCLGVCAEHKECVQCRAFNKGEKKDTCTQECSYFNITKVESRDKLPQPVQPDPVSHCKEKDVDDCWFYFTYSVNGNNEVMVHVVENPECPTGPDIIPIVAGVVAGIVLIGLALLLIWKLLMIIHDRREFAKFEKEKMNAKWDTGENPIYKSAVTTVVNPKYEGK", "assay": "U937/VCAM-1 cell adhesion test (adhesion of U937 cells to hVCAM-1(1-3)-IgG)", "type": "cell-based", "details": "concentration leading to 50% inhibition of adhesion", "description": "As a test method for the activity of the compounds of the formula I on the interaction between VCAM-1 and VLA-4, an assay which is specific for this interaction is used. The cellular binding components, i.e. the VLA-4 integrins, are offered in their natural form as surface molecules on human U937 cells (ATCC CRL 1593) which belong to the group of leucocytes. As specific binding components, recombinant soluble fusion proteins prepared by genetic engineering and consisting of the extracytoplasmic domains of human VCAM-1 and the constant region of a human immunoglobulin of the subclass IgG1 are used.\nAssay for the Measurement of the Adhesion of U937 Cells (ATCC CRL 1593) to hVCAM-1 (1-3)-IgG\n1. Preparation of Human VCAM-1(1-3)-IgG and Human CD4-IgG\nA genetic construct for the expression of the extracellular domains of human VCAM-1 was employed, associated with the genetic sequence of the heavy chain of human immunoglobulin IgG1 (hinge, CH2 and CH3 regions), from Dr. Brian Seed, Massachusetts General Hospital, Boston, USA. The soluble fusion protein hVCAM-1(1-3)-IgG contained the three amino-terminal extracellular immunoglobulin-like domains of human VCAM-1 (Damle and Aruffo, Proc. Natl. Acad. Sci. USA 1991, 88, 6403). CD4-IgG (Zettlmeissl et al, DNA and Cell Biology 1990, 9, 347) served as a fusion protein for negative controls. The recombinant proteins were expressed as soluble proteins after DEAE/dextran-mediated DNA-transfection in COS cells (ATCC CRL1651) according to standard procedures (Ausubel et al., Current protocols in molecular biology, John Wiley & Sons, Inc., 1994).\n2. Assay for Measurement of the Adhesion of U937 Cells to hVCAM-1(1-3)-IgG\n2.1 96-well microtiter test plates (Nunc Maxisorb) were incubated at room temperature for 1 hour with 100 μl/well of a goat-anti-human IgG antibody solution (10 μg/ml in 50 mM tris, pH 9.5). After removing the antibody solution, washing was carried out once with PBS.\n2.2 150 μl/well of a blocking buffer (1% BSA in PBS) were incubated on the plates at room temperature for 0.5 hours. After removing the blocking buffer, washing was carried out once with PBS.\n2.3 100 μl per well of a cell culture supernatant of transfected COS cells were incubated on the plates at room temperature for 1.5 hours. The COS cells were transfected with a plasmid which codes for the three N-terminal immunoglobulin-like domains of VCAM-1, coupled to the Fc part of human IgG1 (hVCAM-1(1-3)-IgG). The content of hVCAM-1 (1-3)-IgG was about […]. After removing the culture supernatant, washing was carried out once with PBS.\n2.4 The plates were incubated at room temperature for 20 minutes with […] of Fc receptor blocking buffer (1 mg/ml of γ-globulin, 100 mM NaCl, 100 μM MgCl2, 100 μM MnCl2, 100 μM CaCl2, 1 mg/ml BSA in 50 mM HEPES, pH 7.5). After removing the Fc receptor blocking buffer, washing was carried out once with PBS.\n2.5 20 μl of binding buffer (100 mM NaCl, 100 μM MgCl2, 100 μM MgCl2, 100 μM CaCl2, 1 mg/ml BSA in 50 mM HEPES, pH 7.5), were initially introduced, the substances to be tested were added in 10 μl of binding buffer and the mixture was incubated for 20 minutes. As controls, antibodies against VCAM-1 (BBT, No. BBA6) and against VLA-4\n(Immunotech, No. 0764) were used.\n2.6 U937 cells were incubated in Fc receptor blocking buffer for 20 minutes and then pipetted in at a concentration of 1×10^6/ml and in an amount of 100 μl per well ([…]).\n2.7 The plates were slowly immersed at an angle of 45° in stop buffer (100 mM NaCl, 100 μM MgCl2, 100 μM MnCl2, 100 μM CaCl2 in 25 mM Tris, pH 7.5) and shaken off. The process was repeated.\n2.8 50 μl/well of a dye solution (16.7 μg/ml of Hoechst dye 33258, 4% formaldehyde, 0.5% Triton X-100 in PBS) were then incubated on the plates for 15 minutes.\n2.9 The plates were shaken off and slowly immersed at an angle of 45° in stop buffer (100 mM NaCl, 100 μM MgCl2, 100 μM MnCl2, 100 μM CaCl2 in 25 mM Tris, pH 7.5). The process was repeated. […]", "note": "pIC50: −log10 of the molar value.", "data": [{"molecule": "COc1ccc(C(CC(=O)O)NC(=O)CN2C(=O)N(Cc3ccccc3)C(C)(c3ccc(C(=N)N)cc3)C2=O)cc1OC", "note": "[Example 57, (R,S)-3-(((R,S)-4-(4-(Amino-imino-methyl)phenyl)-3-benzyl-methyl-2,5-dioxoimidazolidin-1-yl)acetylamino)-3-(3,4-dimethoxyphenyl)propionic acid]", "values": [{"measurement": "pIC50", "value": 4.76}]}, {"molecule": "CC1(c2ccc(CNC(=N)N)cc2)C(=O)N(CC(=O)N[C@@H](CC(=O)O)C(=O)N[C@H](C(=O)O)c2ccccc2)C(=O)N1Cc1ccccc1", "note": "(stereo partly drawn) [Example 69, ((R,S)-4-(4-Guanidinomethylphenyl)-3-benzyl-4-methyl-2,5-dioxo-imidazolidin-1-yl)acetyl-L-aspartyl-L-phenylglycine]", "values": [{"measurement": "pIC50", "value": 5.35}]}, {"molecule": "CN(C(=O)CN1C(=O)N(Cc2ccc(-c3ccccc3)cc2)C(C)(c2ccc(C(=N)N)cc2)C1=O)[C@@H](CC(=O)O)C(=O)N[C@H](C(=O)O)c1ccccc1", "note": "(stereo partly drawn) [Example 18, ((R,S)-4-(4-(Amino-imino-methyl)phenyl)-3-((4-biphenylyl)methyl)-4-methyl-2,5-dioxoimidazolidin-1-yl)acetyl-L-N-methyl-aspartyl-L-phenylglycine]", "values": [{"measurement": "pIC50", "value": 7.05}]}, {"molecule": "C[C@]1(c2ccc(C(=N)N)cc2)C(=O)N(CC(=O)N[C@@H](CC(=O)O)C(=O)N[C@H](C(=O)O)c2ccccc2)C(=O)N1Cc1ccc2ccccc2c1", "note": "[Example 41, ((S)-4-(4-(Amino-imino-methyl)phenyl)-3-((2-naphthyl)methyl)-4-methyl-2,5-dioxoimidazolidin-1-yl)acetyl-L-aspartyl-L-phenylglycine]", "values": [{"measurement": "pIC50", "value": 6.55}]}, {"molecule": "CC1(c2ccc(NC(=N)N)cc2)C(=O)N(CC(=O)N[C@@H](CC(=O)O)C(=O)N[C@H](C(=O)O)c2ccccc2)C(=O)N1Cc1ccccc1", "note": "(stereo partly drawn) [Example 71, ((R,S)-4-(4-Guanidinophenyl)-3-benzyl-4-methyl-2,5-dioxoimidazolidin-1-yl)acetyl-Laspartyl-L-phenylglycine]", "values": [{"measurement": "pIC50", "value": 5.49}]}, {"molecule": "C[C@@]1(c2ccc(C(=N)N)cc2)C(=O)N(CC(=O)N[C@@H](CC(=O)O)C(=O)N[C@H](C(=O)O)c2ccccc2)C(=O)N1Cc1ccc2ccccc2c1", "note": "[Example 9, ((R,S)-4-(4-(Amino-imino-methyl)phenyl)-3-((2-naphthyl)methyl)-4-methyl-2,5-dioxoimidazolidin-1-yl)acetyl-L-aspartyl-L-phenylglycine]", "values": [{"measurement": "pIC50", "value": 6.30}]}, {"molecule": "Cc1cc(C)cc(CN2C(=O)N(CC(=O)N[C@@H](CC(=O)O)C(=O)N[C@H](C(=O)O)c3ccccc3)C(=O)C2(C)c2ccc(C(=N)N)cc2)c1", "note": "(mixture of isomers) [Example 8, ((R,S)-4-(4-(Amino-imino-methyl)phenyl)-3-(3,5-dimethylbenzyl)-4-methyl-2,5-dioxoimidazolidin-1-yl)acetyl-L-aspartyl-L-phenylglycine]", "values": [{"measurement": "pIC50", "value": 5.46}]}, {"molecule": "CC1(c2ccc(N)cc2)C(=O)N(CC(=O)N[C@@H](CC(=O)O)C(=O)N[C@H](C(=O)O)c2ccccc2)C(=O)N1Cc1ccccc1", "note": "(stereo partly drawn) [Example 70, ((R,S)-4-(4-Aminophenyl)-3-benzyl-4-methyl-2,5-dioxoimidazolidin-1-yl)acetyl-L-aspartyl-L-phenylglycine]", "values": [{"measurement": "pIC50", "value": 5.52}]}, {"molecule": "CC1(c2ccc(C(=N)N)cc2)C(=O)N(CC(=O)N[C@@H](CC(=O)O)C(=O)N[C@H](C(=O)O)c2ccccc2)C(=O)N1Cc1c(F)c(F)c(F)c(F)c1F", "note": "(mixture of isomers) [Example 6, ((R,S)-4-(4-(Amino-imino-methyl)phenyl)-3-(2,3,4,5,6-pentafluorobenzyl)-4-methyl-2,5-dioxoimidazolidin-1-yl)acetyl-L-aspartyl-L-phenylglycine]", "values": [{"measurement": "pIC50", "value": 4.19}]}, {"molecule": "CC1(c2ccc(C(=N)N)cc2)C(=O)N(CC(=O)N[C@@H](CC(=O)O)C(=O)N[C@H](C(=O)O)c2ccccc2)C(=O)N1Cc1cccc2ccccc12", "note": "(mixture of isomers) [Example 13, ((R,S)-4-(4-(Amino-imino-methyl)phenyl)-3-((1-naphthyl)methyl)-4-methyl-2,5-dioxoimidazolidin-1-yl)acetyl-L-aspartyl-L-phenylglycine]", "values": [{"measurement": "pIC50", "value": 5.43}]}, {"molecule": "CC1(c2ccc(C(=N)N)cc2)C(=O)N(CC(=O)N[C@@H](CC(=O)O)C(=O)N[C@H](C(=O)O)c2ccccc2)C(=O)N1Cc1ccc(-c2ccccc2)cc1", "note": "(mixture of isomers) [Example 14, ((R,S)-4-(4-(Amino-imino-methyl)phenyl)-3-((4-biphenylyl)methyl)-4-methyl-2,5-dioxoimidazolidin-1-yl)acetyl-L-aspartyl-L-phenylglycine]", "values": [{"measurement": "pIC50", "value": 6.60}]}, {"molecule": "CC1(c2ccc(C(=N)N)cc2)C(=O)N(CC(=O)N[C@@H](CC(=O)O)C(=O)N[C@H](C(=O)O)c2ccccc2)C(=O)N1Cc1ccc([N+](=O)[O-])cc1", "note": "(mixture of isomers) [Example 7, ((R,S)-4-(4-(Amino-imino-methyl)phenyl)-3-(4-nitrobenzyl)-4-methyl-2,5-dioxoimidazolidin-1-yl)acetyl-L-aspartyl-L-phenylglycine]", "values": [{"measurement": "pIC50", "value": 4.60}]}, {"molecule": "CC1(c2ccc(C(=N)N)cc2)C(=O)N(CC(=O)N[C@@H](CC(=O)O)C(=O)N[C@H](C(=O)O)c2ccccc2)C(=O)N1Cc1ccc(C(F)(F)F)cc1", "note": "(mixture of isomers) [Example 15, ((R,S)-4-(4-(Amino-imino-methyl)phenyl)-3-(4-trifluoromethylbenzyl)-4-methyl-2,5-dioxoimidazolidin-1-yl)acetyl-L-aspartyl-L-phenylglycine]", "values": [{"measurement": "pIC50", "value": 4.49}]}, {"molecule": "CN1C(=O)N(CC(=O)N[C@@H](CC(=O)O)C(=O)N[C@H](C(=O)O)c2ccccc2)C(=O)C1(C)c1ccc(C(=N)N)cc1", "note": "(stereo partly drawn) [Example 2, ((R,S)-4-(4-(Amino-imino-methyl)phenyl)-3,4-dimethyl-2,5-dioxo-imidazolidin-1-yl)acetyl-L-aspartyl-L-phenylglycine]", "values": [{"measurement": "pIC50", "value": 4.82}]}, {"molecule": "C[C@]1(c2ccc(C(=N)N)cc2)C(=O)N(CC(=O)N[C@@H](CC(=O)O)C(=O)N[C@H](C(=O)O)c2ccccc2)C(=O)N1Cc1ccccc1", "note": "[Example 63]", "values": [{"measurement": "pIC50", "value": 6.66}]}, {"molecule": "CC1(c2ccc(C(=N)N)cc2)C(=O)N(CC(=O)N[C@@H](CC(=O)O)C(=O)N[C@H](C(=O)O)c2ccccc2)C(=O)N1Cc1ccccc1", "note": "(stereo partly drawn) [Example 4, ((R,S)-4-(4-(Amino-imino-methyl)phenyl)-3-benzyl-4-methyl-2,5-dioxoimidazolidin-1-yl)acetyl-L-aspartyl-L-phenylglycine]", "values": [{"measurement": "pIC50", "value": 5.96}]}, {"molecule": "CC1(c2ccc(C(=N)N)cc2)C(=O)N(CC(=O)NC[C@H](NC(=O)OCc2ccc(C(F)(F)F)cc2)C(=O)O)C(=O)N1Cc1ccccc1", "note": "(stereo partly shown) [Example 67]", "values": [{"measurement": "pIC50", "value": 5.65}]}, {"molecule": "CC1(c2ccc(C(=N)N)cc2)C(=O)N(CC(=O)NC(CC(=O)O)c2ccc3c(c2)OCCO3)C(=O)N1Cc1ccccc1", "note": "[Example 58, (R,S)-3-(((R,S)-4-(4(Amino-imino-methyl)phenyl)-3-benzyl-4-methyl-2,5-dioxoimidazolidin-1-yl)acetylamino)-3-(3,4-ethylenedioxyphenyl)propionic acid]", "values": [{"measurement": "pIC50", "value": 4.60}]}, {"molecule": "((S)-4-(3-Guanidinopropyl)-3-benzyl-2,5-dioxoimidazolidin-1-yl)acetyl-D-glutamyl-L-phenylglycine-L-tyrosine hydrochloride [Example 40]", "values": [{"measurement": "pIC50", "value": 4.57}]}]}
